Test results reported in patent EP2529745A1, “VEGF-D/VEGFR mediated regulation of dendrites” (Universität Heidelberg, priority 2011, dated 2012).

How the values were obtained:
VEGFD = assay: qRT-PCR analysis of VEGFD expression in cultured hippocampal neurons; format: cell-based, mouse
Description: RNA extraction and cDNA synthesis. Total RNA was isolated at DIV10 to DIV13 from hippocampal primary neuron cultures or isolated brain tissues with Rneasy Mini Kit (Qiagen, Hilden, Germany) including an optional Dnase I treatment at room temperature for 15 min according to manufacturer's instructions (Qiagen). 1.2 µg of extracted RNA was reverse transcribed into first strand cDNA using High Capacity cDNA Reverse Transcription kit (Applied Biosystems, Foster City, CA).
Real time quantitative PCR. Quantitative reverse transcriptase PCR (qRT-PCR) was done on an ABI7300 thermal cycler using Universal qRT-PCR master mix with TaqMan Gene Expression Assays for the indicated genes (Applied Biosystems). The following TaqMan Gene Expression Assays were used in this study: Gusb (Mm00446953_m1), cFos (Mm00487425_m1), VEGFD (Mm00438965_m1), VEGFC (Mm01202432_m1), VEGF (Mm01281449_m1), VEGFR3 (Mm01292618_m1), beta-actin (Mm00607939_s1), beta-2 microglobulin (Mm00437762_m1), CBP (Mm01342435_m1), p38 MAPK alpha (Mm00442497_m1), p38 MAPK beta (Mm00440955_m1). Expression of target genes was normalized against the expression of Gusb as endogenous control gene. Data were derived from at least 5 independent experiments.

hippocampal neurons = assay: Morphometric analyses (total dendritic length, Sholl analysis, spines) of cultured hippocampal neurons; format: cell-based, C57BL/6 mice
Description: Hippocampal cultures and transfection. Hippocampal neurons from newborn C57BL/6 mice were cultured as known in the art. Experiments were done after a culturing period of 10 to 14 days in vitro (DIV). DNA transfection was done on DIV8 using Lipofectamine 2000 (Invitrogen, San Diego, CA). For the studies on dendrite morphology, neurons were analyzed 4-5 days after transfection.
Morphometric analyses. For 3D Sholl Analysis, total dendritic length and spine morphology were calculated using Object-Image freeware software with a specific set of macros (written by Dr. E. Ruthazer, McGill University, Quebec). Briefly, a z-Stack acquisition was imported, calibrated in Object-Image and manually traced. Total dendritic length was then computed. For Sholl analysis, the shell interval was set at 5 µm. All analyses were performed blind. In all in vitro experiments, for each condition, a minimum of 12 neurons from three independent preparations was analyzed. For the Golgi staining quantifications of 20 neurons for each condition from 4 different injected animals per viral construct were traced and analyzed. MEA recordings. […]
Immunocytochemistry. […] For the morphometric analyses, fluorescence images were acquired using a confocal laser-scanning microscope TCS SP2 (Leica, Mannheim, Germany) equipped with an inverted fluorescence microscope DM IRE2 (Leica) and Leica confocal scan software. […]

cFos = assay: qRT-PCR analysis of cFos expression in cultured hippocampal neurons
VEGFC = assay: qRT-PCR analysis of VEGFC expression in cultured hippocampal neurons

C[C@]12N[C@H](Cc3ccccc31)c1ccccc12 [MK801]
expression of VEGFD mRNA (VEGFD; 10 µM MK801, 10 µM nifedipine or both, DIV5 to DIV10): significantly reduced the expression of VEGFD mRNA

C[S+]([O-])c1ccc(-c2nc(-c3ccncc3)c(-c3ccc(F)cc3)[nH]2)cc1 (stereo not drawn) [SB203580]
effect on rVEGFD-induced rescue of dendrite length and complexity (hippocampal neurons; neurons expressing CaMBP4 (and CaMKIVK75E), treated 3 days with rVEGFD): severely compromised the ability of rVEGFD to rescue the impairment of dendrite length and complexity | Sholl analysis (hippocampal neurons; neurons expressing hrGFP, CaMBP4 or CaMKIVK75E, treated with SB203580 without rVEGFD): no difference compared to the respective untreated controls

CN1CCc2cc3c(cc2[C@H]1[C@@H]1OC(=O)c2c1ccc1c2OCO1)OCO3 [Bicuculline]
VEGFD mRNA levels (VEGFD): did not alter VEGFC or VEGFD mRNA levels | cFos mRNA (cFos): robust induction of cFos mRNA | VEGFC mRNA levels (VEGFC): did not alter VEGFC or VEGFD mRNA levels
